# According to patent publication US10981911B2, “Imidazopyrrolopyridine as inhibitors of the JAK family of kinases” (Janssen Pharmaceutica NV, priority 2016, dated 2021):
# Assays:
# Assay type in all cases: biochemical
# JAK2-JH1JH2 = JAK2-JH1JH2 (Homo sapiens (Human), UniProt O60674); assay: Enzymatic inhibition assay (RapidFire HTMS), JAK2; settings: 30 μM ATP, 40 μM substrate
# From the text: LC/MS grade Water and Acetonitrile (ACN), were purchased from HoneyWell, Burdick & Jackson (Muskegon, Mich., USA). Dimethylsulfoxide 99.8% (DMSO) and Trifluoroacetic Acid 99.5% (TFA) were purchased from EMD Chemical (Gibbstown, N.J., USA). Adenosine triphosphate (ATP), 4-Morpholinepropanesulfonic acid (MOPS), Magnesium chloride (MgCl2), ethylenediaminetetraacetic acid (EDTA), dithiothreitol (DTT), formic acid >95% (FA) and Tween-20 were purchased from Sigma (St Louis, Mo., USA). 384-well polypropylene plates, Cat #781280 were purchased from Greiner (Monroe, N.C.), RapidFire™ cartridge A C4 Column (Agilent Technologies, Santa Clara, Calif.).
# The HTMS experiments were performed in positive ionization mode on a RapidFire 300 instrument (Agilent Technologies, Santa Clara, Calif.), coupled with an ABSiex QTrap 4000 system with an Electrospray Ionization source (RF-MS) (Concord, ON, Canada). […] The entire system was operated using the RapidFire software interfaced with Analyst software for the mass spectrometer.
# 11-point dosing series were made for each compound by serially diluting 1:3 or 1:4 in DMSO, with point 12 being a DMSO control. From the serial dilution plates, sample was transferred to a 384 wells assay plate (#781280, Greiner, Monroe, N.C.) using Labcyte Echo (Sunnyvale, Calif.), or Biosero ATS (San Diego, Calif.). The compounds were tested in duplicate. Column 12 was used for positive controls, and column 24 contained negative controls with no enzyme added. A compound from our internal collection, with inhibitory activity for JAK isoforms, was used as a reference compound. The final concentration of DMSO was ≤0.25% in a 20 μL reaction. […] The Tyk2 enzyme was pre-incubated with 2 mM ATP for 30 min prior to the reaction initiation. Immediately after the addition of the enzyme to the reaction mixture, the plate was centrifuged at 1000 rpm for 1 minute and incubated at 25° C. for 45 minutes for JAK 3 and 90 minutes for JAK1, JAK2 and Tyk2. The reaction was quenched by the addition of 20 μL of 0.5% TFA containing 0.15 μM of internal standard peptide using Multidrop Combi reagent dispenser (Thermo Scientific, Waltham, Mass.). […] After the quench, the assay plate was centrifuged at 3000 rpm for 3 minutes and sealed with pierceable aluminum foil (Cat #06644-001, Agilent) using a PlateLoc (Agilent Technologies, Santa Clara, Calif.). The plates then were transferred on to the RapidFire for the MS analysis. Compound inhibition was assessed by a decrease of the phosphorylated product levels in sample wells compared to the non-inhibited enzyme reaction.
# The sample analysis on the RapidFire was performed using a mobile phase A consisting of Water/TFA/FA (100:0.01:0.1, v/v/v), a mobile phase B consisting of ACN/Water/TFA/FA (80:20:0.01:0.1, v/v/v). […] The samples were aspirated directly from the 384 assay plate and delivered onto RF-MS microscale solid-phase C4 extraction cartridge (Type A). The undesired component such as salt, cofactor, detergent and large protein were washed out and the retained analytes (substrate, product and IS) were coeluted directly onto the ABSiex Qtrap 4000 system.
# JAK1-JH1JH2 = JAK1-JH1JH2 (Homo sapiens (Human), UniProt P23458); assay: Enzymatic inhibition assay (RapidFire HTMS), JAK1; settings: 12.5 μM ATP, 200 μM substrate; read-out: JAK1-JH2JH1 IC50
# Summary of the method: (§1)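 Quenched with 0.5% TFA plus internal-standard peptide; phosphorylated product quantified by RapidFire C4 SPE–ESI-MS, 11-point 1:3 or 1:4 dilutions in duplicate.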
# JAK3-JH1JH2 = JAK3-JH1JH2 (Homo sapiens (Human), UniProt P52333); assay: Enzymatic inhibition assay (RapidFire HTMS), JAK3; settings: 150 μM ATP, 40 μM substrate
# Summary of the method: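 JAK3 JH1JH2 reaction incubated 45 min at 25 °C, then quenched with 0.5% TFA containing 0.15 μM internal standard peptide. Phosphopeptide product measured by RapidFire C4 SPE–ESI MS (positive mode); inhibition from product decrease versus uninhibited enzyme, 11-point 1:3 or 1:4 dilutions in duplicate.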
# Tyk2-JH1JH2 = Tyk2-JH1JH2 (Homo sapiens (Human), UniProt P29597, C1142A/C936A); assay: Enzymatic inhibition assay (RapidFire HTMS), Tyk2; settings: 50 μM ATP, 200 μM substrate
# Summary of the method: as §1
# Chain of Tyk2-JH1JH2 (P29597 580-1182 C936A/C1142A): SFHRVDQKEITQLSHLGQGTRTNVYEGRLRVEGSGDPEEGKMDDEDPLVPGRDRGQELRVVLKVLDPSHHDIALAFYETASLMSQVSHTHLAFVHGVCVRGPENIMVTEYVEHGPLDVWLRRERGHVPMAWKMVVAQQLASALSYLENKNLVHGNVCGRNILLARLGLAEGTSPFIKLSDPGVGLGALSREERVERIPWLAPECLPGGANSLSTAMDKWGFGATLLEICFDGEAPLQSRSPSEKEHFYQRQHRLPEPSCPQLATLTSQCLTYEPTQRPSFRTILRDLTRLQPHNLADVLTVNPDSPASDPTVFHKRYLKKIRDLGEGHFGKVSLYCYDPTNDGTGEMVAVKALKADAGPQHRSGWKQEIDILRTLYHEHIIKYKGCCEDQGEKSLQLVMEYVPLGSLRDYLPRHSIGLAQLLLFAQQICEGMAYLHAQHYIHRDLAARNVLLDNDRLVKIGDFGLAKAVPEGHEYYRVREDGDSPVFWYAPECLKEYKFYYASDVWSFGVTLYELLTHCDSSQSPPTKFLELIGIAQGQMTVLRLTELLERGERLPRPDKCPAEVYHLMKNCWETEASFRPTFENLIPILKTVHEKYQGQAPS
# Chain of JAK3-JH1JH2 (P52333 512-1124): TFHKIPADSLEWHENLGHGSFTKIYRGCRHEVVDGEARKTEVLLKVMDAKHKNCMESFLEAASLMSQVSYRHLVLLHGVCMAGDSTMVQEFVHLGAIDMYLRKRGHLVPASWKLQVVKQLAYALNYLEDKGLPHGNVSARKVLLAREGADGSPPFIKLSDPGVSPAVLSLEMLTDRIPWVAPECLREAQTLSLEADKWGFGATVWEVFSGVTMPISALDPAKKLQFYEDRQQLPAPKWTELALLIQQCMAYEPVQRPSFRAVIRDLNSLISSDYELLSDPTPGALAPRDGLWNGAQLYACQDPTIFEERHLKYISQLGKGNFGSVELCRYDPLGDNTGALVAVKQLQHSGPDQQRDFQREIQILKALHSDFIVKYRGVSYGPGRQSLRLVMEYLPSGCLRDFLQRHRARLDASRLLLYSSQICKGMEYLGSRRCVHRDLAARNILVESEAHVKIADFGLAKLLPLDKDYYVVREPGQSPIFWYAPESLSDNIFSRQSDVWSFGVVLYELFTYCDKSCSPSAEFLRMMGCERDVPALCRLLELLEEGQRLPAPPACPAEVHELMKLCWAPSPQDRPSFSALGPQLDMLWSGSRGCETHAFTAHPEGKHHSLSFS
# Chain of JAK2-JH1JH2 (O60674 532-1132): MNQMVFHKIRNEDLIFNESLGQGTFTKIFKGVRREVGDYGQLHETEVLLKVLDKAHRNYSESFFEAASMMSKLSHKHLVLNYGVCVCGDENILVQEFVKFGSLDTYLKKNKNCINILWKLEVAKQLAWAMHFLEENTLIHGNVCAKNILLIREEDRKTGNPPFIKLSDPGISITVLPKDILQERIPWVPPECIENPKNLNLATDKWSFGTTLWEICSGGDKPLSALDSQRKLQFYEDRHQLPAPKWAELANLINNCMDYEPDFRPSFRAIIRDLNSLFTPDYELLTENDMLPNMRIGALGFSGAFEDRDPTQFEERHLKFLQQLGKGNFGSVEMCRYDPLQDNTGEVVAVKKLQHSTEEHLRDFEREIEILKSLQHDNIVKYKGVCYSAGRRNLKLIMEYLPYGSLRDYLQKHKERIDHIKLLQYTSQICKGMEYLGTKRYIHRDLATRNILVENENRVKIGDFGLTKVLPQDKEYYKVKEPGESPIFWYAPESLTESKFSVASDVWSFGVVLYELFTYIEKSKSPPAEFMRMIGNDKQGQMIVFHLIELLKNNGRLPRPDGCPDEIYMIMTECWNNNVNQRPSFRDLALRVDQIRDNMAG
# Chain of JAK1-JH1JH2 (P23458 574-1154): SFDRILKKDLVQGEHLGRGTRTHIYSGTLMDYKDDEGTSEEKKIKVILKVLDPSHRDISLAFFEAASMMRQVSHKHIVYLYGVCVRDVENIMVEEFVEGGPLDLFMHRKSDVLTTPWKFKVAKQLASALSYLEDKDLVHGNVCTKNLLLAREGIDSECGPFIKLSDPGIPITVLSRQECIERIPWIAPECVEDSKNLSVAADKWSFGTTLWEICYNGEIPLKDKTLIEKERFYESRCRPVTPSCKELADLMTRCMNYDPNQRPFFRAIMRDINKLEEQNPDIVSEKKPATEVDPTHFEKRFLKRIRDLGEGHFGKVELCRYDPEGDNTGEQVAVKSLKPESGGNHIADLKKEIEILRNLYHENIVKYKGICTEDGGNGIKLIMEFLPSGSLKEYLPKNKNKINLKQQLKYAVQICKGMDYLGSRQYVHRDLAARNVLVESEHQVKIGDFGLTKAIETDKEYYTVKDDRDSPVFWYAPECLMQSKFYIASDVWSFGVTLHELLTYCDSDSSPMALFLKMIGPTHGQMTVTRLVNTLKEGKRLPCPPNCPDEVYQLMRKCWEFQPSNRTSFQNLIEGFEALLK
Compound,IC50 (JAK2-JH1JH2),IC50 (JAK1-JH1JH2),IC50 (JAK3-JH1JH2),IC50 (Tyk2-JH1JH2)
"N#CC[C@H]1CC[C@H](n2c(C(=O)NC3CC3)nc3cnc4[nH]ccc4c32)CC1 [Ex. 175, 1-((1r,4r)-4-(Cyanomethyl)cyclohexyl)-N-cyclopropyl-1,6-dihydroimidazo[4,5-d]pyrrolo[2,3-b]pyridine-2-carboxamide]",27.8 nM,2.5 nM,839 nM,49.5 nM
"N#CC[C@H]1CC[C@H](n2c(CNC(=O)c3ccccc3)nc3cnc4[nH]ccc4c32)CC1 [Ex. 148, N-((1-((1r,4r)-4-(Cyanomethyl)cyclohexyl)-1,6-dihydroimidazo[4,5-d]pyrrolo[2,3-b]pyridin-2-yl)methyl)benzamide]",50.4 nM,1.1 nM,767 nM,36.2 nM
"N#CC[C@H]1CC[C@H](n2c(CNS(=O)(=O)c3ccc(C#N)cc3)nc3cnc4[nH]ccc4c32)CC1 [Ex. 97, 4-Cyano-N-((1-((1r,4r)-4-(cyanomethyl)cyclohexyl)-1,6-dihydroimidazo[4,5-d]pyrrolo[2,3-b]pyridin-2-yl)methyl)benzenesulfonamide]",45.1 nM,0.5 nM,3880 nM,26.9 nM
"Cc1cc2c(ncc3nc(CC(=O)NCC(C)(C)O)n([C@H]4CC[C@H](CC#N)CC4)c32)[nH]1 [Ex. 191, 2-(1-((1r,4r)-4-(Cyanomethyl)cyclohexyl)-7-methyl-1,6-dihydroimidazo[4,5-d]pyrrolo[2,3-b]pyridin-2-yl)-N-(2-hydroxy-2-methylpropyl)acetamide]",57.3 nM,1.3 nM,1340 nM,20.6 nM

# Molecules with a lower IC50 (JAK2-JH1JH2), results first:
IC50 (JAK2-JH1JH2),IC50 (JAK1-JH1JH2),IC50 (JAK3-JH1JH2),IC50 (Tyk2-JH1JH2),Compound
21.2 nM,3.2 nM,864 nM,60.8 nM,"C[S@@](=O)(=NCc1nc2cnc3[nH]ccc3c2n1[C@H]1CC[C@H](CC#N)CC1)c1ccccc1 [Ex. 163, 2-((1r,4r)-4-(2-((((S)-methyl(oxo)(phenyl)-λ^6-sulfanylidene)amino)methyl)imidazo[4,5-d]pyrrolo[2,3-b]pyridin-1(6H)-yl)cyclohexyl)acetonitrile]"
19.4 nM,0.7 nM,317 nM,14.2 nM,"C#Cc1ccc(C(=O)c2ccc(COCc3nc4cnc5[nH]ccc5c4n3[C@H]3CC[C@H](CC#N)CC3)cc2)cc1 [Ex. 126, 2-((1r,4r)-4-(2-(((4-(4-Ethynylbenzoyl)benzyl)oxy)methyl)imidazo[4,5-d]pyrrolo[2,3-b]pyridin-1(6H)-yl)cyclohexyl)acetonitrile]"
12 nM,0.5 nM,181 nM,4.5 nM,"CC(C)(O)C1CCN(C(=O)Cc2nc3cnc4[nH]ccc4c3n2[C@H]2CC[C@H](CC#N)CC2)CC1 [Ex. 93, 2-((1r,4r)-4-(2-(2-(4-(2-Hydroxypropan-2-yl)piperidin-1-yl)-2-oxoethyl)imidazo[4,5-d]pyrrolo[2,3-b]pyridin-1(6H)-yl)cyclohexyl)acetonitrile]"
6.6 nM,0.2 nM,996 nM,1.6 nM,"N#CC[C@H]1CC[C@H](n2c(CNC(=N)c3ccccc3)nc3cnc4[nH]ccc4c32)CC1 [Ex. 30, N-((1-((1r,4r)-4-(Cyanomethyl)cyclohexyl)-1,6-dihydroimidazo[4,5-d]pyrrolo[2,3-b]pyridin-2-yl)methyl)benzimidamide]"
1.3 nM,0.2 nM,59.3 nM,2.8 nM,"N#CC[C@H]1CC[C@H](n2c(CC(=O)NC34CC5CC(CC(C5)C3)C4)nc3cnc4[nH]ccc4c32)CC1 [Ex. 32, N-((3R,5R)-Adamantan-1-yl)-2-(1-((1r,4r)-4-(cyanomethyl)cyclohexyl)-1,6-dihydroimidazo[4,5-d]pyrrolo[2,3-b]pyridin-2-yl)acetamide]"
1 nM,< 0.2 nM,47 nM,0.3 nM,"N#CC[C@H]1CC[C@H](n2c(CNC(N)=O)nc3cnc4[nH]ccc4c32)CC1 [Ex. 40, 1-((1-((1r,4r)-4-(Cyanomethyl)cyclohexyl)-1,6-dihydroimidazo[4,5-d]pyrrolo[2,3-b]pyridin-2-yl)methyl)urea]"
